Results from paper PMC2802001, “Binding of Natural and Synthetic Polyphenols to Human Dihydrofolate Reductase” (International Journal of Molecular Sciences, 2009).
“And” between values parts separate entries of the source, which are not always exact repeats. Equal values may be shown once. “Also recorded” adds a separate entry of the source.

Experiments:
human DHFR [1] = molecular target: T1, human DHFR (Homo sapiens, UniProt P00374); assay: Human DHFR activity assayed in the presence of tea catechins; type: biochemical
T1 construct: purchased Sigma
T1 sequence (P00374 1-187): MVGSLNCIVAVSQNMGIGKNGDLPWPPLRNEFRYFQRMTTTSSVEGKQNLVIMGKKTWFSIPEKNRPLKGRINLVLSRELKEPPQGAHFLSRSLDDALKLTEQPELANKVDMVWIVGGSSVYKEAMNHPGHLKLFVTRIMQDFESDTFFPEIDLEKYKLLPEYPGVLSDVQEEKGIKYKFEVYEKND
Procedure: In order to detect which components of these extracts were responsible for such inhibition, human DHFR activity was assayed in the presence of EC, EGC, ECG or EGCG. […] The effective binding of ECG to free human DHFR was determined by following the decrease in enzyme fluorescence that occurs after formation of the enzyme-inhibitor complex (Figure 3).

human DHFR [2] = molecular target: T1, human DHFR; assay: Fluorescence titration (quenching of tryptophan fluorescence) for binding to free DHFR; conditions: for Kd / Binding to human DHFR (effect on enzyme fluorescence), in words: fluorescence quenching; for Kd: excitation 290 nm, enzyme 0.1 μM, pH 7.4, read-out: KD, dissociation constant for binding to human DHFR
Procedure: Highly purified tea polyphenols EGCG (>95%), ECG (>98%), EGC (>98%), and EC (>98%) were purchased from Sigma Chemical Co. (Madrid, Spain). Qgal, Qglc, Qrha and Qxyl were form Fluka (Madrid, Spain). […] To synthesize TMECG-QM, a TMECG solution (0.5 mM) in phosphate buffered saline (PBS), pH 7.0, was alkalinize at pH 8.5 with NaOH. The reaction was followed spectrophotometrically at 470 nm and, after completion, the sample was neutralized by adding HCl. Recombinant human DHFR was purchased from Sigma and its concentration was determined by MTX titration of enzyme fluorescence.
The fluorescence of DHFR is reduced on binding of substrates and inhibitors, and this property may be used as a convenient method for determining both the enzyme concentration and the dissociation constants of enzyme-ligands complexes. Dissociation constants for the binding of polyphenols to free DHFR were determined by fluorescence titration in an automatic-scanning Perkin-Elmer LS50B spectrofluorimeter with 1.0 cm light path cells and equipped with a 150W xenon (XBO) light source. The formation of the binary complex between the enzyme and the ligand was followed by measuring the quenching of tryptophan fluorescence of the enzyme upon addition of microliter volumes of a concentrated stock solution of ligand. Fluorescence emission spectra were recorded when DHFR fluorescence was excited at 290 nm. All measurements were corrected for dilution and the data from the titration curves were fitted as described previously. Titrations were performed in a buffer containing 2-(N-morpholino)ethanesulfonic acid (Mes, 0.025 M), sodium acetate (0.025 M), tris(hydroxymethyl)aminomethane (Tris 0.05 M), and NaCl (0.1 M), at pH 7.4.

chicken liver DHFR = tested on: chicken liver DHFR; parameters: method as in PMID 15781612; conditions: cited from earlier work
bovine liver DHFR = tested on: bovine liver DHFR; parameters: method as in PMID 15781612; conditions: cited from earlier work
[3] = parameters: method as in PMID 18324763; conditions: cited from earlier work
[4] = tested on: different cancer cell lines; parameters: method as in PMID 18324763; conditions: cited from earlier work
[5] = Stability of TMECG in solution at neutral and alkaline pH; type: physicochemical
Procedure: Despite the excellent anticancer properties of tea catechins, they have at least one great limitation: their poor bioavailability. The reduced availability of catechins is related with their low stability in neutral or slightly alkaline solutions and their poor ability to cross cellular membranes. […] This synthetic catechin also bound human DHFR with an effective dissociation constant of 2.1 ± 0.2 μM (Figure 5; Table 1). […] By analogy with the oxidation of quercetin in alkaline solution [19], the proposed structure for this compound is depicted in Figure 6 and was identified as a quinone methide (TMECG-QM) with an open structure.
Highly purified tea polyphenols EGCG (>95%), ECG (>98%), EGC (>98%), and EC (>98%) were purchased from Sigma Chemical Co. (Madrid, Spain). Qgal, Qglc, Qrha and Qxyl were form Fluka (Madrid, Spain). TMECG was successfully synthesized (70% recovery) from catechin with the subsequent inversion of the stereochemistry at C-3 and by reaction of with 3,4,5-trimethoxybenzoylchloride (Sigma). To synthesize TMECG-QM, a TMECG solution (0.5 mM) in phosphate buffered saline (PBS), pH 7.0, was alkalinize at pH 8.5 with NaOH. The reaction was followed spectrophotometrically at 470 nm and, after completion, the sample was neutralized by adding HCl. Recombinant human DHFR was purchased from Sigma and its concentration was determined by MTX titration of enzyme fluorescence.

Row | SMILES | Inhibition of human DHFR activity, in words (human DHFR [1]) | Kd (human DHFR [2]) | further results
1 | O=C(OC1Cc2c(O)cc(O)cc2OC1c1ccc(O)c(O)c1)c1cc(O)c(O)c(O)c1 (single isomer, unassigned; (-)) [ECG, (-)-epicatechin gallate] | potent inhibitors | 1800 nM and 1780 nM | –
2 | Oc1cc(O)c2c(c1)OC(c1cc(O)c(O)c(O)c1)C(O)C2 (single isomer, unassigned; (-)) [EGC, (-)-epigallocatechin] | did not inhibit | – | Binding to human DHFR (effect on enzyme fluorescence), in words (human DHFR [2]): did not bind
3 | O=c1c(O[C@@H]2O[C@H](CO)[C@H](O)[C@H](O)[C@H]2O)c(-c2ccc(O)c(O)c2)oc2cc(O)cc(O)c12 [Qgal, quercetin-3-D-galactoside] | – | 22800 ± 3200 nM | –
4 | O=c1c(O[C@@H]2O[C@H](CO)[C@@H](O)[C@H](O)[C@H]2O)c(-c2ccc(O)c(O)c2)oc2cc(O)cc(O)c12 [Qglc, quercetin-3-β-D-glucoside] | – | 102000 ± 9000 nM | –
5 | CC1OC(Oc2c(-c3ccc(O)c(O)c3)oc3cc(O)cc(O)c3c2=O)C(O)C(O)C1O (stereo not drawn) [Qrha, quercetin-3-rhamnoside] | – | 17200 ± 2400 nM | –
6 | COc1cc(C(=O)O[C@@H]2Cc3c(O)cc(O)cc3OC2c2ccc(O)c(O)c2)cc(OC)c1OC (stereo partly drawn) [TMECG, 3-O-(3,4,5-trimethoxybenzoyl)-(-)-epicatechin] | – | 2100 ± 200 nM | Bioavailability in vitro [3]: high bioavailability in vitro; Antiproliferative activity [4]: significant antiproliferative activity; Stability at alkaline pH ([5]; alkaline pH, band at 470 nm): rapidly evolves to an orange compound; Stability at neutral pH ([5]; neutral pH): highly stable
7 | COc1cc(C(=O)O[C@H](Cc2c(O)cc(O)cc2O)/C(O)=C2/C=CC(=O)C(O)=C2)cc(OC)c1OC [TMECG-QM] | – | – | Affinity for human DHFR relative to EGCG, ECG or TMECG (human DHFR [2]; compared with EGCG, ECG or TMECG): more than two-order of magnitude more strongly; Affinity for human DHFR relative to MTX (human DHFR [2]; compared with MTX): forty-times less

More lines, main results first:

Row | Inhibition of human DHFR activity, in words (human DHFR [1]) | Kd (human DHFR [2]) | SMILES | further results
8 | did not inhibit | – | Oc1cc(O)c2c(c1)O[C@H](c1ccc(O)c(O)c1)[C@H](O)C2 [EC, (-)-epicatechin] | Binding to human DHFR (effect on enzyme fluorescence), in words (human DHFR [2]): did not modify the emission spectra; also recorded: did not bind
9 | potent inhibitors | 900 nM and 920 nM | O=C(O[C@@H]1Cc2c(O)cc(O)cc2O[C@@H]1c1cc(O)c(O)c(O)c1)c1cc(O)c(O)c(O)c1 [EGCG, (-)-epigallocatechin gallate] | Type of inhibition of DHF reduction (chicken liver DHFR): classical, reversible, competitive inhibitor; Type of inhibition of DHF reduction (bovine liver DHFR): slow-binding inhibitor
10 | – | 600 nM and 590 nM | O=c1c(OC2OCC(O)C(O)C2O)c(-c2ccc(O)c(O)c2)oc2cc(O)cc(O)c12 [Qxyl, quercetin-3-D-xyloside] | –
